A word on the LD50: it is the dose expected to kill half of the subjects tested.

Where two headings read alike, the source gives them in different places.

The subject of data set [1] is Lymphoid leukemia L-1210 solid-type tumor. In words: L1210 Tumor test (solid-type tumor, subcutaneous, inhibition of tumor proliferation by tumor weight). As to conditions: for ED50 / ED90: Mus musculus; for ED50 / ED90 / ID50 / ID90: L1210 tumor; for ED50: read-out: ID50 (the source's name); for ED90: read-out: ID90 (the source's name). Type of data set: in vivo, BDF1 male mice. The protocol: Lymphoid leukemia L-1210 solid-type tumor was transplanted (1×10^6 cells) in subcutis on the back of BDF1 male mice having the body weight of about 22 g. The mice were killed 10-11 days after the transplantation and the inhibitory effect of tumor proliferation was evaluated by measuring the weight of tumor.
(§1) Each of 5, 10, 20, 50, 100 mg of compounds to be tested is dissolved in a phisiological NaCl solution (5 mg/kg of concentration) and administered by intraperitoneal injection (I.P.) or orally (P.O.). As to the reference the phisiological NaCl solution (5 mg/kg of concentration) was used.

The subject of data set [2] is Lymphocytic leukemia P388 tumor. In words: P388 tumor test (Table 2, headed P328 Tumor test). To be noted: for ED50 / ED90: Mus musculus, P388, ip; for ED50: read-out: ID50 (the source's name); for ED90: read-out: ID90 (the source's name). Type of data set: in vivo, BDF1 male mice. The procedure: Lymphocytic leukemia P388 liquid-type tumor was transplanted (1×10^6 cells) in abdominal cavity of BDF1 male mice having the body weight of about 20 g. The effect was evaluated by a method of ILS (Increase in life span).
Similarly lymphocytic leukemia P388 solid-type tumor was transplanted (1×10^6 cells) in subcutis on the back of BDF1 male mice having the body weight of about 22 g. The mice were killed 15 to 16 days after the transplantation and the inhibitory effect of tumor proliferation was evaluated by measuring the weight of tumor.
as §1

Data set [3] can be described thus: Acute toxicity test (LD50). Type of data set: in vivo, ICR male mice. To be noted: for LD50: ICR male mice, I.P. An excerpt:
LD50 (mg/kg) values (ICR male mice, I.P.) of R-(+)-cyclophosphamide, S-(-)-cyclophosphamide and racemic form of cyclophosphamide are shown below.

Data set [4] relates to Lymphoid leukemia L-1210 solid-type tumor. As to the kind of experiment: L1210 Tumor test (solid-type tumor, subcutaneous, inhibition of tumor proliferation by tumor weight). Type of data set: in vivo, BDF1 male mice. As to conditions: Mus musculus, L1210, sc, I.O. (so in the source).
The next data set relates to PC6-Tumor. To be noted: compared with R-(+)-cyclophosphamide and racemic form; Cox et al. 1976; cited from earlier work.
For data set [5] the following is noted: compared with R-(+)-cyclophosphamide; Cox et al. 1976; cited from earlier work.
The mark [6] stands for this setting: P328 Tumor test (so in the source), I.P.
Where [7] appears, read: mouse, in vivo, ip, read-out: LD50.

`O=P1(N(CCCl)CCCl)NCCCO1` (racemic) [Racemic form of cyclophosphamide, cyclophosphamide]: the ED50 in data set [1] (L1210, po, P.O.) worked out at 28 mg/kg; in data set [2] (setting [6]) it was 12.9 mg/kg; in data set [4] (read-out: ID50 (the source's name)), 33 mg/kg. Further, the ED90 turned out to be 90 mg/kg in data set [1] (L1210, po, P.O.); 39.7 mg/kg in data set [2] (setting [6]); 107 mg/kg in data set [4] (read-out: ID90 (the source's name)). For the same compound, the LD50 in data set [3] (setting [7]) came out at 440 mg/kg.
For `O=P1(N(CCCl)CCCl)NCCCO1` (single isomer, unassigned) [S-(-)-cyclophosphamide], the ID50 in data set [1] (I.P.) is reported as 44 mg/kg; in data set [1] (P.O.), 29 mg/kg; in data set [2] (setting [6]), 14.6 mg/kg. Further, the values for the ID90 in data set [1] (I.P.), in data set [1] (P.O.) and in data set [2] (setting [6]) were 143 mg/kg, 95 mg/kg and 26.3 mg/kg, respectively. Also, in data set [2] (compared with R-(+)-cyclophosphamide and racemic form), the “anti-tumor effect against P388-Tumor” value was “better than those of R-(+)-cyclophosphamide and racemic form of cyclophosphamide”. For the same compound, the LD50 in data set [3] stood at 330 mg/kg. In the data set with PC6-Tumor, the “anti-tumor effect against PC6-Tumor” value is “better than those of R-(+)-cyclophosphamide and racemic form of cyclophosphamide”. Also, the pharmacological activities result in data set [5] is given as “excellent pharmacological activities as compared with R-(+)-cyclophosphamide”.
For `O=P1(N(CCCl)CCCl)NCCCO1` (single isomer, unassigned) [R-(+)-cyclophosphamide], the ED50 in data set [1] (L1210, ip, I.P.) came to 32 mg/kg; in data set [1] (L1210, po, P.O.), 24 mg/kg; in data set [2] (setting [6]), 24.3 mg/kg. Moreover, the ED90 in data set [1] (L1210, ip, I.P.) was found to be 104 mg/kg; in data set [1] (L1210, po, P.O.) it was 76 mg/kg; in data set [2] (setting [6]) it was 50.8 mg/kg. The “anti-tumor effect against L 1210-Tumor” value in data set [1] (compared with S-(-)-cyclophosphamide and racemic form) was “better anti-tumor effect than those of shown by S-(-)-cyclophosphamide and racemic form of cyclophosphamide”. Also, in data set [3] (in mice, compared with S-(-)-cyclophosphamide and racemic form), the acute toxicity result is “lower acute toxicity (in mice) than those shown by S-(-)-cyclophosphamide and racemic form of cyclophosphamide”. For the same compound, the LD50 in data set [3] (setting [7]) came to 550 mg/kg.

(Values after US4239709A, “Process for preparing optically active oxazaphosphorins” (Otsuka Pharmaceutical Co., Ltd., priority 1978, dated 1980).)
